The values below come from patent US20240158439A1, “INHIBITORS OF ANTIGEN PRESENTATION BY MHC CLASS II HLA-DRB1*15:01 MOLECULES WITH ENHANCED METABOLIC STABILITY” (Provid Pharmaceuticals Inc., priority 2021, published 2024).

Where “and” joins values, the source holds several entries; their conditions need not be identical. Equal entries are not always repeated. Where two headings read alike, the source gives them in different places. Where a SMILES comes first, the peptide text is derived from it. [ ]: non-standard residue; d: D form. The star is where a group is joined. Gly(cPent) = N[C@H](C(=O)O)C1CCCC1; NH(CH2CH2O)4Me = COCCOCCOCCOCCN*; Tic = O=C(O)[C@@H]1Cc2ccccc2CN1; Chg = N[C@H](C(=O)O)C1CCCCC1; Nva = CCC[C@H](N)C(=O)O; NHCH2CH2OMe = COCCN*

Data set [1] deals with BC3 T cells + autologous hPBMCs from DRB1*15:01-positive MS patient. The data set is described as follows: Human cellular immunology assay (IFN-gamma ELISPOT). In kind it is cell-based. As to conditions: inhibition of IFN-gamma response, FIG. 2. As for the experimental part:
After washing and blocking, autologous APCs (irradiated PBMCs) pretreated with different concentrations of the DRB1*15:01 inhibitors for 45 min were added on the plate (0.3−0.5×10^6 cells per well), followed by the addition of Ag or positive control using PHA (Sigma-Aldrich) or anti-human CD3 mAb (Bio X Cell; OKT3) along with BC3 T cells or enriched PBMC T cells (4,000-20,000 cells per well). Plates were incubated at 37° C. for 24 h, then washed and biotinylated anti-human IFN-γ mAb (Thermo Scientific; B133.5) was added at 4° C., overnight. After that, plates were incubated with Streptavidin AP (Invitrogen) and developed with BCIP/NBT Phosphatase substrate (KPL) after washing. After developing of the plates, image analysis of ELISPOT assays was performed on a Series 2 ImmunoSpot analyzer and software (CTL) as described previously (Kawamura, K., et al., (2008) J. Immunol. 181: 3202-3211).

Data set [2] can be described thus: Mouse pharmacokinetics/metabolism study. In kind it is in vivo, C57BL/6J mice. As for the experimental part:
The pharmacokinetics/metabolism study was performed in non-fasted C57BL/6J mice. Dose formulation was prepared on the day of treatment, using 10% v/v DMSO solution and 90% sterile water for injection as vehicle. Blood samples were collected at 0.25, 0.5, 1, 2, 4, 6, 8, 12 and 24 hr post-dose (n=9 mice/group, staggered sampling with 3 mice/time point). At each time point, under isoflurane anesthesia approximately 70 μL of blood was collected through retro orbital plexus puncture and transferred into a pre-labeled tube. 50 μL of blood was taken from the prelabeled tube and it was added into a labelled tube containing 200 μL of acetonitrile to precipitate proteins. Immediately, blood samples were vortexed to facilitate mixing of acetonitrile with the blood. Samples were kept on dry ice at −70° C. until analysis. [table] Bioanalysis was performed using fit-for-purpose analytical method using LC-MS/MS method for the quantification of PV-267 (Parent) or PV-3212 (Parent) and PV-623 (Metabolite) in mice blood samples and the linearity range was 2 to 2500 ng/mL for PV-267 (Parent), PV-3212 (Parent) and PV-623 (metabolite). The blood pharmacokinetic parameters for PV-267 and PV-3212 were calculated by using standard non-compartmental analysis (Phoenix software, version 6.4, Pharsight Corporation, Mountain View, Calif. 94040/USA) using the sparse sampling model and linear trapezoidal with linear interpolation calculation method. Pharmacokinetic Parameters for PV-623 (metabolite) were not calculated due to insufficient blood concentrations.

Data set [3] is described as follows: Pharmacokinetics of PV-267 in rats and mice.
The subject of data set [4] is EAE in DRB1*15:01 transgenic mice. Conditions: cited from earlier work.
Data set [5] concerns Goodpasture antigen (α3(IV)NC1). As to conditions: Huynh et al. 2019; cited from earlier work.
A further data set addresses T1, HLA-DRB1*15:01 (Homo sapiens, UniProt P01903+P01911).
T1 construct: endogenous in cells; host or cells: EBV homozygous cell lines (human)
The experiment in a line: HLA II binding assay (competitive, biotinylated reference peptide).

The mark [6] stands for this setting: Table 2, DRB1*15:01 binding, unit inferred, nM, read-out: Avg IC50.
Setting [7] is: C57BL/6J, mouse, in vivo, ip, 10 mg/kg.

Take `COCCOCCOCCOCCNC(=O)[C@H](Cc1ccccc1)NC(=O)[C@@H]1Cc2ccccc2CN1C(=O)[C@H](CCCNC(=N)N)NC(=O)[C@@H](NC(=O)[C@@H](NC(C)=O)C(C)C)C1CCCCC1` [PV-3213, Ac-V-(Chg)-R-(Tic)-F—NH(CH2CH2O)4CH3] (Ac-V[Chg]R[Tic]F-{NH(CH2CH2O)4Me}): the “potency compared to PV-267 in human cellular assay” value in data set [1] was “at least as potent as the unsubstituted PV-267”.
By IC50 is commonly meant the concentration at which inhibition is half-maximal. As for `CC(=O)N[C@H](C(=O)N[C@H](C(=O)N[C@@H](CCCNC(=N)N)C(=O)N1Cc2ccccc2C[C@H]1C(=O)N[C@@H](Cc1ccccc1)C(N)=O)C1CCCCC1)C(C)C` [PV-267, Ac-V-(Chg)-R-(Tic)-F—NH2] (Ac-V[Chg]R[Tic]F-NH2), in data set [2] (10 mg/kg IP, 0.25 hr), the “ratio of metabolite PV-623 to parent at 0.25 hr” value was 0.61 and 0.67. Also, the “ratio of metabolite PV-623 to parent at 0.5 hr” value in data set [2] (10 mg/kg IP, 0.5 hr) stood at 0.73. For the same compound, the level at 0.25 h in data set [2] (C57BL/6J, mouse, plasma, ip, 10 mg/kg, parent, text b45, 0.25 hr, read-out: plasma concentration at 0.25 hr) was found to be 275 ng/mL. Also, in data set [2] (C57BL/6J, mouse, plasma, ip, 10 mg/kg, parent, text b45, 0.5 hr, read-out: plasma concentration at 0.5 hr), the level at 0.5 h worked out at 91.5 ng/mL. Also, in data set [2] (C57BL/6J, mouse, whole blood, single IP 10 mg/kg, observed at 0.25 hr post dose, read-out: Parent peak blood concentration), the Cmax came out at 275 ng/mL. Moreover, the “metabolism to the acid PV-623” value in data set [2] (mouse PK studies) is “rapidly metabolized to PV-623”. In addition, in data set [2] (parent compound, 10 mg/kg IP, 0.25 hr), the Mean Plasma Concentration 0.25 hr turned out to be 275 ng/mL. Further, the Mean Plasma Concentration 0.5 hr in data set [2] (parent compound, 10 mg/kg IP, 0.5 hr) is 91.5 ng/mL. Also, the “in vivo conversion to C-terminal acid PV-623” value in data set [3] is “significantly converted to the C-terminal acid PV-623”. Besides, in data set [4], the “efficacy in animal models of multiple sclerosis” value is “efficacy in animal models of multiple sclerosis”. Besides, the “autoreactivity to the Goodpasture antigen” value in data set [5] is reported as “attenuates autoreactivity to the Goodpasture antigen”. The IC50 at HLA-DRB1*15:01 (read-out: binding IC50) was determined as 2.5 nM.
In the case of `CC(=O)N[C@H](C(=O)N[C@H](C(=O)N[C@@H](CCCNC(=N)N)C(=O)N1Cc2ccccc2C[C@H]1C(=O)N[C@@H](Cc1ccccc1)C(=O)O)C1CCCCC1)C(C)C` [PV-623, Ac-V-(Chg)-R-(Tic)-F—OH] (Ac-V[Chg]R[Tic]F-OH), the Mean Plasma Concentration 0.25 hr in data set [2] (acid metabolite PV-623 after PV-267 10 mg/kg IP, 0.25 hr) is 169 ng/mL; in data set [2] (acid metabolite PV-623 after PV-3212 10 mg/kg IP, 0.25 hr) it was 8.54 ng/mL. Further, the Mean Plasma Concentration 0.5 hr was 65.3 ng/mL in data set [2] (acid metabolite PV-623 after PV-267 10 mg/kg IP, 0.5 hr) and 3.57 ng/mL in data set [2] (acid metabolite PV-623 after PV-3212 10 mg/kg IP, 0.5 hr). At HLA-DRB1*15:01 (setting [6]), the half-inhibitory concentration (IC50) came to 26 nM.
Take `CC(=O)N[C@H](C(=O)N[C@H](C(=O)N[C@@H](CCCNC(=N)N)C(=O)N1Cc2ccccc2C[C@H]1C(=O)N[C@@H](Cc1ccccc1)C(N)=O)C1CCCC1)C(C)C` [PV-573] (Ac-V[Gly(cPent)]R[Tic]F-NH2): on HLA-DRB1*15:01 (setting [6]), the IC50 was determined as 6.7 nM.
On the same count and under the same terms, the figure for `CC(=O)N[C@H](C(=O)N[C@@H](CCCNC(=N)N)C(=O)N[C@@H](Cc1ccccc1)C(=O)N[C@@H](Cc1ccccc1)C(N)=O)C(C)C` [PV-119, reference compound] (Ac-VRFF-NH2) is 5000 nM; for `CCC[C@H](NC(C)=O)C(=O)N[C@H](C(=O)N[C@@H](CCCNC(=N)N)C(=O)N1Cc2ccccc2C[C@H]1C(=O)N[C@@H](Cc1ccccc1)C(N)=O)C1CCCCC1` [PV-591] (Ac-[Nva][Chg]R[Tic]F-NH2) it is 4.1 nM.
Broadly, the half-life is the time needed for the level to fall by half in the phase considered. A lower half-life goes with fast loss. With `COCCNC(=O)[C@H](Cc1ccccc1)NC(=O)[C@@H]1Cc2ccccc2CN1C(=O)[C@H](CCCNC(=N)N)NC(=O)[C@@H](NC(=O)[C@@H](NC(C)=O)C(C)C)C1CCCCC1` [PV-3212, Ac-V-(Chg)-R-(Tic)-F—NH(CH2CH2O)1CH3] (Ac-V[Chg]R[Tic]F-NHCH2CH2OMe), the “potency compared to PV-267 in human cellular assay” value in data set [1] is “more potent than the simple amide (PV-267)”. In data set [2] (setting [7]), this compound showed a Cmax of 741 ng/mL, a half-life of 3.23 h, a level at 0.25 h of 741 ng/mL and a level at 0.5 h of 195 ng/mL. Also, in data set [2] (mouse, in vivo), the “metabolism to the acid PV-623” value is on record as “remarkably stable”. In data set [2] (mouse, in vivo, ip, 10 mg/kg), this compound yielded a Mean Plasma Concentration 0.25 hr of 741 ng/mL and a Mean Plasma Concentration 0.5 hr of 195 ng/mL.
